Series [1] deals with T1, Histone-lysine N-methyltransferase EHMT2 (Homo sapiens) (UniProt Q96KQ7).
T1 sequence (whole entry): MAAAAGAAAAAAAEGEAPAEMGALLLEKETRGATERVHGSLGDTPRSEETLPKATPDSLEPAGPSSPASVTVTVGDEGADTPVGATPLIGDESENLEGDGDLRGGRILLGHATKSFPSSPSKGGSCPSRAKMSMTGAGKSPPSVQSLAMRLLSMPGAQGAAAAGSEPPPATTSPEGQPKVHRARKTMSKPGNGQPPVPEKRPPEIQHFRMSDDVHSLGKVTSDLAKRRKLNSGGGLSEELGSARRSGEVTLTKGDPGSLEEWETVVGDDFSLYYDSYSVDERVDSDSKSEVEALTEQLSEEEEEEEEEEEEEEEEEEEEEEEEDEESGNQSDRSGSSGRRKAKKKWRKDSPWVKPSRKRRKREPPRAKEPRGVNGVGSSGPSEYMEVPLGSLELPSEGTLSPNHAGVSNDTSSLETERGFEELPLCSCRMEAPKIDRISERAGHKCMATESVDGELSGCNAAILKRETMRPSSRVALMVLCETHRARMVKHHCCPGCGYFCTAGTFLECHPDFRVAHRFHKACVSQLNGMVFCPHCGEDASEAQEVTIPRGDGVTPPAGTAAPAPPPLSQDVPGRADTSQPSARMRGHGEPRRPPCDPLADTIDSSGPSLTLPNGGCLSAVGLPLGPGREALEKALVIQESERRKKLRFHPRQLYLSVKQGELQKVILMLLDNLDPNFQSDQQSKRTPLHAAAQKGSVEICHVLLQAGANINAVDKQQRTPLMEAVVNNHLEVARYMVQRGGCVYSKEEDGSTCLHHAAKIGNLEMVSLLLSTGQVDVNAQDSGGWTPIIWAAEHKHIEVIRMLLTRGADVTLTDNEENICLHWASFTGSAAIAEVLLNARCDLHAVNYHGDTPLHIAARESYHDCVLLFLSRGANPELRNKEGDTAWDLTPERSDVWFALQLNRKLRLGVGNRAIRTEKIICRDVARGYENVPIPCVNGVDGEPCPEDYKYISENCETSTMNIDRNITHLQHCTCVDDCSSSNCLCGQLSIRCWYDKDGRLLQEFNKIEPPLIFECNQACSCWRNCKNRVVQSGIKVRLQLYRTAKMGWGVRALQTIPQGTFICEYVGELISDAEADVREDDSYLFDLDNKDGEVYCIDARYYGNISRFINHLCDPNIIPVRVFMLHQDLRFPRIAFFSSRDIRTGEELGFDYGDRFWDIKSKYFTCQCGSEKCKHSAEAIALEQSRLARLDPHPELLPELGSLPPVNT
In words: Inhibition of G9a (unknown origin) at 5 uM preincubated for 15 mins followed by substrate and [3H-SAM] addition and measured after 60 mins by microbeta analysis relative to control. The following applies: time 75.0 min.

The target in series [2] is T2, Histone-lysine N-methyltransferase EHMT2 (Homo sapiens, UniProt Q96KQ7).
T2 sequence (Q96KQ7 whole entry): T1 sequence (whole entry)
Description: Inhibition of G9a (unknown origin) preincubated for 15 mins followed by substrate and [3H-SAM] addition and measured after 60 mins by microbeta analysis.

Series [3] in a line: Apparent clearance during terminal phase in Sprague-Dawley rat at 10 mg/kg, po measured upto 24 hrs by LC/MS/MS analysis. The following applies: in vivo, read-out: CLz/F (converted). The series is classed as ADME, organism-based.
The nature of series [4]: Cmax in Sprague-Dawley rat at 10 mg/kg, iv measured upto 24 hrs by LC/MS/MS analysis. The series is classed as ADME, organism-based. The following applies: in vivo.
Series [5] is described as follows: Volume of distribution at steady state in Sprague-Dawley rat at 10 mg/kg, iv measured upto 24 hrs by LC/MS/MS analysis. The series is classed as ADME, organism-based. The following applies: in vivo, read-out: Vdss.
The nature of series [6]: Clearance in Sprague-Dawley rat at 10 mg/kg, iv measured upto 24 hrs by LC/MS/MS analysis. The class given is ADME, organism-based. The following applies: in vivo.
In another series the test system is MOLM-13. In words: Antiproliferative activity against human MOLM-13 cells assessed as inhibition of cell viability measured after 72 hrs by MTT assay. The series is classed as functional, cell-based. The following applies: MOLM-13, 72 h. (Tetrazolium assays rely on reduction of a dye to a coloured formazan, in cell work by metabolically active cells.)
Another series has as its system A549. In words: Antiproliferative activity against human A549 cells assessed as inhibition of cell viability measured after 72 hrs by MTT assay. The series is classed as functional, cell-based. The following applies: A549, 72 h.
For a further series, the system named is HT-29. Description: Antiproliferative activity against human HT-29 cells assessed as inhibition of cell viability measured after 72 hrs by MTT assay. The series is classed as functional, cell-based. The following applies: HT-29, 72 h.
Another series relates to U2932. Description: Antiproliferative activity against human U2932 cells assessed as inhibition of cell viability measured after 72 hrs by MTT assay. The series is classed as functional, cell-based. The following applies: U2932, 72 h.
Series [7] deals with TMD8. In words: Induction of cell cycle arrest in human TMD8 cells assessed as accumulation of cells at S phase at 0.25 uM incubated for 24 hrs by PI staining based flow cytometry analysis (reference value: 39.0%). The class given is functional.
Series [8] concerns DOHH-2. In words: Induction of cell cycle arrest in human DOHH-2 cells assessed as accumulation of cells at G0-G1 phase at 0.5 uM incubated for 24 hrs by PI staining based flow cytometry analysis (reference value: 27.1%). The series is classed as functional. On the technique in general: In flow cytometry, cells or beads pass a laser one at a time.
Series [9] concerns DOHH-2. In words: Induction of cell cycle arrest in human DOHH-2 cells assessed as accumulation of cells at G0-G1 phase incubated for 24 hrs by PI staining based flow cytometry analysis. The class given is functional. The following applies: dose 0.25-1 µM.
Series [10] relates to DOHH-2. Description: Induction of apoptosis in human DOHH-2 cells assessed as late apoptotic cells measured after 48 hrs by annexin-V/FITC and PI staining based flow cytometry analysis. The class given is functional, cell-based. The following applies: dose 0.25-5 µM.
In series [11] the test system is TMD8. In words: Induction of apoptosis in human TMD8 cells assessed as early apoptotic cells at 2.5 uM measured after 48 hrs by annexin-V/FITC and PI staining based flow cytometry analysis (reference value: 9.15%). The series is classed as functional.
Series [12] concerns TMD8. Description: Induction of apoptosis in human TMD8 cells assessed as early apoptotic cells at 5 uM measured after 48 hrs by annexin-V/FITC and PI staining based flow cytometry analysis (reference value: 9.15%). The series is classed as functional.
The subject of series [13] is DOHH-2. In words: Induction of apoptosis in human DOHH-2 cells assessed as early apoptotic cells at 0.25 uM measured after 48 hrs by annexin-V/FITC and PI staining based flow cytometry analysis (reference value: 5.69%). The class given is functional.
Series [14] deals with DNA (cytosine-5)-methyltransferase 1 (Homo sapiens, UniProt P26358). In words: Inhibition of DNMT1 in human DOHH-2 cells assessed as inhibition of DNA methylation incubated for 48 hrs by Western blot analysis. The series is classed as cell-based. The following applies: dose 10-1000 nM. (In general: In western blotting, separated proteins are transferred to a membrane and probed.)
DNA (cytosine-5)-methyltransferase 1, sequence (P26358 whole entry): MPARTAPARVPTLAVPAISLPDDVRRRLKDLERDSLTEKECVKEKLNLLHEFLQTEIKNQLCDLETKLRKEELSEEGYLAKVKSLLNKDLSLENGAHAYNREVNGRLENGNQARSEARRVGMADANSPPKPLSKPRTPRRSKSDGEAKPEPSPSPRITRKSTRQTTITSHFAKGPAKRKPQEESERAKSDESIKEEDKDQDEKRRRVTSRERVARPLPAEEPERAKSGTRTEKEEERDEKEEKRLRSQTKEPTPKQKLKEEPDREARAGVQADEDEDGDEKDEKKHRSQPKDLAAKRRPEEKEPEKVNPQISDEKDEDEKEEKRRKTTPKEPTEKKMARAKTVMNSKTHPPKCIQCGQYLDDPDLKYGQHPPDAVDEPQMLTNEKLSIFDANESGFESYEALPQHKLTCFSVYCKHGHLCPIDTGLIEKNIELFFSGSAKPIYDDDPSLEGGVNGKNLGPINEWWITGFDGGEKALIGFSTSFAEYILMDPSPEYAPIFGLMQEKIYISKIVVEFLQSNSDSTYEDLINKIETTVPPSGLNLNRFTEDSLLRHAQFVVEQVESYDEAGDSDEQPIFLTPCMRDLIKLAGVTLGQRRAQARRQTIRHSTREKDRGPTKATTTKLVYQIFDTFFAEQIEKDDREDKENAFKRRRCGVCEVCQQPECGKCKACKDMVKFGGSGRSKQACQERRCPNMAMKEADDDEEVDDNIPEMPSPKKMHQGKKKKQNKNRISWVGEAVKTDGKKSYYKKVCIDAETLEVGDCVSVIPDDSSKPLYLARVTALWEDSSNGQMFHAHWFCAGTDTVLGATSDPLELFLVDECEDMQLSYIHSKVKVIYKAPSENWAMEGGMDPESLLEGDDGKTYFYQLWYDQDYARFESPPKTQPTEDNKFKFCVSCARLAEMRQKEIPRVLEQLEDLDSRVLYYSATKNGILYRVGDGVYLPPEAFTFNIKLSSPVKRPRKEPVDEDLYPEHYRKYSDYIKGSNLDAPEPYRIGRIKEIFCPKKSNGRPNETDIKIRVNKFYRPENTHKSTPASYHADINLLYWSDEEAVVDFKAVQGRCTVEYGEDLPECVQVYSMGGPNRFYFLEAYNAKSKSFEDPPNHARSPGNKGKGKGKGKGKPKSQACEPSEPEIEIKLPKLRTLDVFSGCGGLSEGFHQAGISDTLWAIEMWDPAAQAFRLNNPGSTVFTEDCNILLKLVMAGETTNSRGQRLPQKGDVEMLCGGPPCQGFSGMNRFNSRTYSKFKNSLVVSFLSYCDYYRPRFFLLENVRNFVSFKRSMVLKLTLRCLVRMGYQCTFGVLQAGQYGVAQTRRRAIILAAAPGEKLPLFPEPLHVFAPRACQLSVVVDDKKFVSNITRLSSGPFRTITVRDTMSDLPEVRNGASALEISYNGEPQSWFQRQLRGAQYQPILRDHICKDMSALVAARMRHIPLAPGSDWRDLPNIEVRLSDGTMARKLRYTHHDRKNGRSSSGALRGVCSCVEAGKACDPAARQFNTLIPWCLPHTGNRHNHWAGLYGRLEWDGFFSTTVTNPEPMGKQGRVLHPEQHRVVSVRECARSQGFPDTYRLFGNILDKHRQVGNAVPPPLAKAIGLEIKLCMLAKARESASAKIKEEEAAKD

Series [15] is described as follows: Upregulation of FAS mRNA level in human DOHH-2 cells assessed as fold change at 300 nM measured after 6 days by PCR analysis. The class given is functional. The following applies: time 6 day.
In series [16] the test system is TMD8. In words: Antitumor activity against human TMD8 cells xenografted in mouse model assessed as tumor inhibition rate at 10 mg/kg, iv administered three times a week relative to control. The series is classed as functional. The arrangement: scale not given: the % may be the effect or the level left.
A short description of series [17]: Toxicity in mouse assessed as effect on weight gain at 10 mg/kg, iv administered three times a week. The series is classed as organism-based. The following applies: in vivo.
A short description of series [18]: Subacute toxicity in Balb/C mouse assessed as effect on red blood cells at 30 mg/kg, iv administered three times in a week for 2 weeks. The following applies: in vivo, 336 h. The series is classed as organism-based.
Series [19] is described as follows: Subacute toxicity in Balb/C mouse assessed as effect on hematocrit at 30 mg/kg, iv administered three times in a week for 2 weeks. The class given is organism-based. The following applies: in vivo, 336 h.

As a reminder, the inhibition is how much of the control response was suppressed. The pIC50 is the IC50 on a negative log10 scale, so that one unit is a factor of ten. In general, Cmax refers to the peak of the concentration-time curve. What is called clearance is the volume of plasma or blood freed of the substance per unit of time.

pIC50: −log10 of the molar value. Active and inactive are the calls of the source. The calls are words filed in the database; no cut-off is given here.

For `CN1CCC(Nc2nc(-c3ccnc(F)c3)nc3c2ccn3CCCN2CCCC2)CC1`, the inhibition in [1] was found to be 0.3%. Moreover, the pIC50 in series [2] is under 4.70; with MOLM-13, 5.97; with A549, 6.14; in the series on HT-29, 5.97; in the series with U2932 it was 6.27. Also, in [3], the CL/F is 322 mL/min/kg. Moreover, the concentration in [4] peaked (Cmax) at 419 ng/mL. In addition, the Vd in [5] is 102 L/kg. The same compound gave a clearance in series [6] of 123 mL/min/kg. In addition, the Activity in the series with TMD8 [7] is 37.8%; in the series on DOHH-2 [8], 39.7%; in the series on DOHH-2 [9], “Dose-dependent-effect”; in the series with DOHH-2 [10], “Dose-dependent-effect”; in the series on TMD8 [11] it was 23%; in the series with TMD8 [12], 41.3%. Moreover, the Activity is 10.5% in the series with DOHH-2 [13]; 54.61% with TMD8 [16]; “Non-toxic” in [17]; “Non-toxic” in [18]; “Non-toxic” in series [19]. For the same compound, in series [14], the inhibition entry is “Active”. Besides, in series [15], the “fold change (FC)” value was determined as 3.05.
